Legend:
Assay in all cases: in vitro antibacterial evaluation, MIC by broth dilution
Type in all cases: cell-based
[1] = system: Staphylococcus sp.
Method in brief: (§1)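 MIC, the lowest antibiotic concentration preventing growth, was read across 64-0.06 μg/mL with 5×10^5 CFU/mL inoculum. Method followed NCCLS M7-A2 broth dilution using Mueller-Hinton II; Gram-positive strains covered recent methicillin-, penicillin- and/or vancomycin-resistant clinical isolates.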

[2] = system: Enterococcus sp.; conditions: broth dilution, 18 hours at 35° C.
Method in brief: as §1

[3] = system: Streptococcus sp.; conditions: broth dilution, 18 hours at 35° C.
Method in brief: as §1

[4] = system: Escherichia coli; conditions: for MIC Escherichia coli (ATCC 25922): strain ATCC 25922, 18 hours at 35° C.; for MIC Escherichia coli (GC 4559): strain GC 4559, 18 hours at 35° C.; for MIC Escherichia coli (GC 4560): strain GC 4560, 18 hours at 35° C.
Method in brief: as §1

[5] = broth dilution, 18 hours at 35° C., inoculum 5×10^5 CFU/mL; strain GC 1131
[6] = broth dilution, 18 hours at 35° C.; strain ATCC 29213
[7] = broth dilution, 18 hours at 35° C.; strain GC 1131
[8] = broth dilution, 18 hours at 35° C.; strain GC 3051
[9] = broth dilution, 18 hours at 35° C.; strain GC 3053
[10] = broth dilution, 18 hours at 35° C.; strain GC 4541
[11] = broth dilution, 18 hours at 35° C.; strain GC 4542
[12] = broth dilution, 18 hours at 35° C.; strain GC 4544
[13] = broth dilution, 18 hours at 35° C.; strain GC 4545

CC(c1ccccc1)C1NC(=O)CNC(=O)C(CO)NC(=O)C(C(O)C2CNC(=N)N2C2OC(CO)C(O)C(O)C2O)NC(=O)C(C(O)C2CNC(=N)N2)NC(=O)C(Cc2ccc(OC3OC(CO)C(OC4OC5COC(c6ccc(-c7ccc(Cl)cc7)cc6)OC5C(O)C4O)C(O)C3O)cc2)NC1=O (stereo not drawn) [Example 178, Cyclo[glycyl-β-methylphenylalanyl-O-[4-O-[4,6-O-[4-(4-chlorophenyl)benzylidene]hexopyranosyl]hexopyranosyl]tyrosyl-3-(2-iminoimidazolidin-4-yl)seryl-3-(3-hexopyranosyl-2-iminoimidazolidin-4-yl)serylseryl]]
0.5 µg/mL: MIC Coagulase Negative Staphylococcus (GC 4548) ([1]; strain GC 4548; broth dilution, 18 hours at 35° C.) | MIC Enterococcus faecalis (GC 6189) ([2]; inoculum 5×10^5 CFU/mL, strain GC 6189) | MIC Enterococcus faecalis (GC 6189) ([2]; strain GC 6189)
0.12 µg/mL: MIC Streptococcus pyogenes (GC 4563) ([3]; inoculum 5×10^5 CFU/mL, strain GC 4563) | MIC Streptococcus pyogenes (GC 4563) ([3]; strain GC 4563)
8 µg/mL: MIC Staphylococcus aureus (GC 3051) [1, 8] | MIC Staphylococcus aureus (GC 4541) [1, 10] | MIC Staphylococcus aureus (GC 4542) [1, 11] | MIC Staphylococcus aureus (GC 4544) [1, 12] | MIC Staphylococcus haemolyticus (GC 4546) ([1]; strain GC 4546; broth dilution, 18 hours at 35° C.) | MIC Enterococcus faecium (GC 4557) ([2]; inoculum 5×10^5 CFU/mL, strain GC 4557) | MIC Enterococcus faecium (GC 4557) ([2]; strain GC 4557)
2 µg/mL: MIC Coagulase Negative Staphylococcus (GC 4549) ([1]; strain GC 4549; broth dilution, 18 hours at 35° C.) | MIC Coagulase Negative Staphylococcus (GC 6257) ([1]; strain GC 6257; broth dilution, 18 hours at 35° C.) | MIC Enterococcus faecalis (GC 2242) ([2]; inoculum 5×10^5 CFU/mL, strain GC 2242) | MIC Enterococcus faecalis (GC 4553) ([2]; inoculum 5×10^5 CFU/mL, strain GC 4553) | MIC Enterococcus faecalis (GC 4554) ([2]; inoculum 5×10^5 CFU/mL, strain GC 4554) | MIC Enterococcus faecalis (GC 2242) ([2]; strain GC 2242) | MIC Enterococcus faecalis (GC 4553) ([2]; strain GC 4553) | MIC Enterococcus faecalis (GC 4554) ([2]; strain GC 4554)
4 µg/mL: MIC Staphylococcus aureus (GC 1131) [1, 5] | MIC Staphylococcus aureus (GC 1131) [1, 7] | MIC Staphylococcus aureus (GC 3053) [1, 9] | MIC Staphylococcus aureus (GC 4545) [1, 13] | MIC Staphylococcus aureus-SMITH (GC 4543) ([1]; strain GC 4543; broth dilution, 18 hours at 35° C.) | MIC Coagulase Negative Staphylococcus (GC 4551) ([1]; strain GC 4551; broth dilution, 18 hours at 35° C.) | MIC Enterococcus faecalis (ATCC 29212) ([2]; inoculum 5×10^5 CFU/mL, strain ATCC 29212) | MIC Enterococcus faecium (GC 2243) ([2]; inoculum 5×10^5 CFU/mL, strain GC 2243) | MIC Enterococcus faecalis (GC 4552) ([2]; inoculum 5×10^5 CFU/mL, strain GC 4552) | MIC Enterococcus faecium (GC 4556) ([2]; inoculum 5×10^5 CFU/mL, strain GC 4556) | MIC Enterococcus avium (GC 4558) ([2]; inoculum 5×10^5 CFU/mL, strain GC 4558) | MIC Enterococcus faecalis (ATCC 29212) ([2]; strain ATCC 29212) | MIC Enterococcus faecium (GC 2243) ([2]; strain GC 2243) | MIC Enterococcus faecalis (GC 4552) ([2]; strain GC 4552) | MIC Enterococcus faecium (GC 4556) ([2]; strain GC 4556) | MIC Enterococcus avium (GC 4558) ([2]; strain GC 4558)
>64 µg/mL: MIC Escherichia coli (ATCC 25922) [4] | MIC Escherichia coli (GC 4559) [4]
16 µg/mL: MIC Staphylococcus aureus (ATCC 29213) [1, 6] | MIC Enterococcus faecalis (GC 3059) ([2]; inoculum 5×10^5 CFU/mL, strain GC 3059) | MIC Enterococcus faecalis (GC 3059) ([2]; strain GC 3059) | MIC Escherichia coli (GC 4560) [4]
<0.06 µg/mL: MIC Streptococcus pneumoniae (ATCC 6301) ([3]; inoculum 5×10^5 CFU/mL, strain ATCC 6301) | MIC Streptococcus pneumoniae (GC 1894) ([3]; inoculum 5×10^5 CFU/mL, strain GC 1894) | MIC Streptococcus agalactiae (GC 4564) ([3]; inoculum 5×10^5 CFU/mL, strain GC 4564) | MIC Streptococcus pneumoniae (GC 4565) ([3]; inoculum 5×10^5 CFU/mL, strain GC 4565) | MIC Streptococcus pneumoniae (ATCC 6301) ([3]; strain ATCC 6301) | MIC Streptococcus pneumoniae (GC 1894) ([3]; strain GC 1894) | MIC Streptococcus agalactiae (GC 4564) ([3]; strain GC 4564) | MIC Streptococcus pneumoniae (GC 4565) ([3]; strain GC 4565)
32 µg/mL: MIC Coagulase Negative Staphylococcus (GC 4547) ([1]; strain GC 4547; broth dilution, 18 hours at 35° C.)
1 µg/mL: MIC Enterococcus faecalis (GC 2691) ([2]; inoculum 5×10^5 CFU/mL, strain GC 2691) | MIC Enterococcus faecalis (GC 2691) ([2]; strain GC 2691)

CCOc1cc(C2OCC3OC(OC4C(CO)OC(Oc5ccc(CC6NC(=O)C(C(C)c7ccccc7)NC(=O)CNC(=O)C(CO)NC(=O)C(C(O)C7CNC(=N)N7C7OC(CO)C(O)C(O)C7O)NC(=O)C(C(O)C7CNC(=N)N7)NC6=O)cc5)C(O)C4O)C(O)C(O)C3O2)ccc1OC (centres unmarked) [Example 152]
8 µg/mL: MIC Staphylococcus aureus-SMITH (GC 4543) ([1]; broth dilution, 18 hours at 35° C.; strain GC 4543) | MIC Staphylococcus aureus (GC 4545) [1, 13] | MIC Staphylococcus haemolyticus (GC 4546) ([1]; broth dilution, 18 hours at 35° C.; strain GC 4546) | MIC Coagulase Negative Staphylococcus (GC 4547) ([1]; broth dilution, 18 hours at 35° C.; strain GC 4547) | MIC Coagulase Negative Staphylococcus (GC 4548) ([1]; broth dilution, 18 hours at 35° C.; strain GC 4548) | MIC Coagulase Negative Staphylococcus (GC 4549) ([1]; broth dilution, 18 hours at 35° C.; strain GC 4549) | MIC Coagulase Negative Staphylococcus (GC 6257) ([1]; broth dilution, 18 hours at 35° C.; strain GC 6257) | MIC Staphylococcus aureus-SMITH (GC 4543) ([1]; broth dilution, 18 hours at 35° C.; strain SMITH GC 4543) | MIC Streptococcus agalactiae (GC 4564) ([3]; Streptococcus agalactiae (GC 4564)) | MIC Streptococcus agalactiae (GC 4564) ([3]; strain GC 4564) | MIC Escherichia coli (GC 4560) [4]
0.5 µg/mL: MIC Streptococcus pneumoniae (GC 1894) ([3]; Streptococcus pneumoniae (GC 1894)) | MIC Streptococcus pneumoniae (GC 1894) ([3]; strain GC 1894)
4 µg/mL: MIC Streptococcus pyogenes (GC 4563) ([3]; Streptococcus pyogenes (GC 4563)) | MIC Streptococcus pyogenes (GC 4563) ([3]; strain GC 4563)
16 µg/mL: MIC Staphylococcus aureus (GC 1131) [1, 5] | MIC Staphylococcus aureus (ATCC 29213) [1, 6] | MIC Staphylococcus aureus (GC 1131) [1, 7] | MIC Staphylococcus aureus (GC 3051) [1, 8] | MIC Staphylococcus aureus (GC 4541) [1, 10] | MIC Staphylococcus aureus (GC 4542) [1, 11] | MIC Staphylococcus aureus (GC 4544) [1, 12] | MIC Coagulase Negative Staphylococcus (GC 4551) ([1]; broth dilution, 18 hours at 35° C.; strain GC 4551) | MIC Enterococcus faecium (GC 4557) ([2]; Enterococcus faecium (GC 4557)) | MIC Enterococcus faecium (GC 4557) ([2]; strain GC 4557)
2 µg/mL: MIC Streptococcus pneumoniae (ATCC 6301) ([3]; Streptococcus pneumoniae (ATCC 6301)) | MIC Streptococcus pneumoniae (GC 4565) ([3]; Streptococcus pneumoniae (GC 4565)) | MIC Streptococcus pneumoniae (ATCC 6301) ([3]; strain ATCC 6301) | MIC Streptococcus pneumoniae (GC 4565) ([3]; strain GC 4565)
>64 µg/mL: MIC Escherichia coli (ATCC 25922) [4] | MIC Escherichia coli (GC 4559) [4]
32 µg/mL: MIC Staphylococcus aureus (GC 3053) [1, 9] | MIC Enterococcus avium (GC 4558) ([2]; Enterococcus avium (GC 4558)) | MIC Enterococcus faecalis (ATCC 29212) ([2]; Enterococcus faecalis (ATCC 29212)) | MIC Enterococcus faecalis (GC 2242) ([2]; Enterococcus faecalis (GC 2242)) | MIC Enterococcus faecalis (GC 2691) ([2]; Enterococcus faecalis (GC 2691)) | MIC Enterococcus faecalis (GC 3059) ([2]; Enterococcus faecalis (GC 3059)) | MIC Enterococcus faecalis (GC 4552) ([2]; Enterococcus faecalis (GC 4552)) | MIC Enterococcus faecalis (GC 4554) ([2]; Enterococcus faecalis (GC 4554)) | MIC Enterococcus faecalis (GC 6189) ([2]; Enterococcus faecalis (GC 6189)) | MIC Enterococcus faecium (GC 2243) ([2]; Enterococcus faecium (GC 2243)) | MIC Enterococcus faecium (GC 4556) ([2]; Enterococcus faecium (GC 4556)) | MIC Enterococcus faecalis (ATCC 29212) ([2]; strain ATCC 29212) | MIC Enterococcus faecalis (GC 2242) ([2]; strain GC 2242) | MIC Enterococcus faecium (GC 2243) ([2]; strain GC 2243) | MIC Enterococcus faecalis (GC 2691) ([2]; strain GC 2691) | MIC Enterococcus faecalis (GC 3059) ([2]; strain GC 3059) | MIC Enterococcus faecalis (GC 4552) ([2]; strain GC 4552) | MIC Enterococcus faecalis (GC 4554) ([2]; strain GC 4554) | MIC Enterococcus faecium (GC 4556) ([2]; strain GC 4556) | MIC Enterococcus avium (GC 4558) ([2]; strain GC 4558) | MIC Enterococcus faecalis (GC 6189) ([2]; strain GC 6189)
64 µg/mL: MIC Enterococcus faecalis (GC 4553) ([2]; Enterococcus faecalis (GC 4553)) | MIC Enterococcus faecalis (GC 4553) ([2]; strain GC 4553)

Source: patent US6914045B2, “Glycopeptide antibiotics” (Wyeth Holdings Corporation, priority 2001, dated 2005)
